Test: In-vivo testing for antiobesic activity
Settings: rats
[1] = 10 mg/kg body weight daily intraperitoneally over 14 days

O=C(NN1CCCCC1)C1=NN(c2ccc(Cl)cc2Cl)C(c2ccc(Cl)cc2)C1 (stereo not drawn) [Example 1, N-piperidinyl-5-(4-chlorophenyl)-1-(2,4-dichlorophenyl)-4,5-dihydro-1H-pyrazole-3-carboxamide]
body weight (FIG. 1) [1]: body weight is lowered
food intake (FIG. 2) [1]: reduction of food intake
body weight effect after the treatment is ended (FIG. 1) (after end of 14 days of 10 mg/kg daily intraperitoneally): also observed after the treatment is ended
